Results as given in patent publication US10253039B2, “Inhibitors of bacterial DNA gyrase with efficacy against gram-negative bacteria” (priority 2014, dated 2019).
Converted amounts (≈) assume the structure as drawn. Like-named read-outs stand apart in the source and are kept apart here.

Key:
[1] = biological target: T1, GyrBAfus:20-20 bp DNA complex (Staphylococcus aureus, UniProt P0A0K8+P20831); assay: 1H NMR binding study, titration; details: titrating 1:1 GyrBAfus:20-20 bp DNA into 50 μM compound
T1 construct: The C-terminal end of the B subunit was connected to the N-terminal end of the A subunit
T1 sequence (P0A0K8 410-543): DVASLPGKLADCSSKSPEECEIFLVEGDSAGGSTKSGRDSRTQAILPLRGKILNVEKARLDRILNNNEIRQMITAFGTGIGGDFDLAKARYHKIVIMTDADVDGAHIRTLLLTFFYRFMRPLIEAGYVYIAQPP
T1 sequence (P0A0K8 580-644): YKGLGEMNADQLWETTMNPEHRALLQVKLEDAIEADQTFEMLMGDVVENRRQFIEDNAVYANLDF
T1 sequence (P20831 2-491): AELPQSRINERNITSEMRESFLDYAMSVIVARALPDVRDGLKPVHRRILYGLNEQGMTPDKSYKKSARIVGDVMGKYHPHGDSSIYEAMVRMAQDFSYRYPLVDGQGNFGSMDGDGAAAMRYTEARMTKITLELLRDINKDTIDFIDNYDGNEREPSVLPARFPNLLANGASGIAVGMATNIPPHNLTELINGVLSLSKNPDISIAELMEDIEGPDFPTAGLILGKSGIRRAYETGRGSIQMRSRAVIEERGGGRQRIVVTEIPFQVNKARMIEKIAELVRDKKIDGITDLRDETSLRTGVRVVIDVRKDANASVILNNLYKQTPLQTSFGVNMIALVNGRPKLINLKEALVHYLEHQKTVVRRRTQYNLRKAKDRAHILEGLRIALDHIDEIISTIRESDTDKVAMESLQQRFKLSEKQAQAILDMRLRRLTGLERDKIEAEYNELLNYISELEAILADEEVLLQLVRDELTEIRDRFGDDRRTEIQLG

[2] = system: E. coli BW25113 ΔtolC cipR isolate GyrB Ser464Phe; assay: MIC against ciprofloxacin-resistant mutant; details: Escherichia coli, BW25113
Protocol: (§2) A microdilution method in 96-well plates was used and the MIC protocol established by the Clinical Laboratory Standards Institute was followed. From a growing subculture, a 1:10000 inoculum of each strain in Luria-Bertani media was prepared and aliquoted 100 μL in 4 columns of wells, except for the top row wells, which contained 200 μL of inoculum. […] The liquid in each of wells was mixed with a multi-channel pipet and 100 μL was transferred to the next well and mixed. The 2-fold dilution was continued down the 96-well plate until 100 μL was left, which was discarded. The plates were incubated at 37° C. with shaking for 16-18 hours. The MIC was determined as the lowest concentration that inhibited growth and had no turbidity by visual inspection.

[3] = system: E. coli BW25113 ΔtolC cipR isolate GyrA Ser83Leu; assay: MIC against ciprofloxacin-resistant mutant; details: Escherichia coli, BW25113
Protocol: as §2

[4] = system: ciprofloxacin resistant strains of E. coli; assay: MIC against ciprofloxacin resistant strains compared to parent strain; details: ratio to MIC of parent strain E. coli BW25113 ΔtolC
Protocol: as §2

Klebsiella pneumonia = assay: MIC, microdilution in 96-well plates; details: Klebsiella pneumoniae
Morganella morganii = assay: MIC, microdilution in 96-well plates
[5] = system: E. coli BW25113 ΔtolC gyrR isolate GyrA His45Tyr; assay: MIC against gyramide-resistant mutant; details: Escherichia coli, BW25113
Protocol: as §2

Shigella boydii = assay: MIC, microdilution in 96-well plates
[6] = system: E. coli BW25113 ΔtolC gyrR isolate GyrA Phe96Leu; assay: MIC against gyramide-resistant mutant; details: Escherichia coli, BW25113
Protocol: as §2

Vibrio cholera = assay: MIC, microdilution in 96-well plates; details: Vibrio cholerae
[7] = system: E. coli BW25113 ΔtolC gyrR isolate GyrB Thr508Met; assay: MIC against gyramide-resistant mutant; details: Escherichia coli, BW25113
Protocol: as §2

[8] = system: gyramide A resistant mutants of E. coli; assay: MIC against gyramide A resistant mutants compared to parent strain; details: ratio to MIC of parent strain E. coli BW25113 ΔtolC
Protocol: as §2

E. coli BW25113 = assay: MIC, microdilution in 96-well plates; type: cell-based; details: Escherichia coli, BW25113, E. coli BW25113, read-out: MIC
How it was run: (§1)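 Inoculum 1:10000 (LB, log-phase subculture). Triplicate twofold dilutions plus DMSO column. 37° C., shaken, 16-18 h. Lowest non-turbid well = MIC. CLSI method.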

Edwardsiella tarda = assay: MIC, microdilution in 96-well plates; type: cell-based; details: read-out: MIC
How it was run: as §1

Pseudomonas aeruginosa = assay: MIC, microdilution in 96-well plates; type: cell-based; details: read-out: MIC
How it was run: as §1

Enterobacter aerogenes = assay: MIC, microdilution in 96-well plates; type: cell-based; details: Klebsiella aerogenes, Enterobacter aerogenes, read-out: MIC
How it was run: as §1

Acinetobacter baumannii = assay: MIC, microdilution in 96-well plates; type: cell-based; details: read-out: MIC
How it was run: as §1

wild-type E. coli = assay: Killing / inhibition of wild-type E. coli; type: cell-based, Escherichia coli
Excerpt: The compounds of the invention are observed to inhibit wild-type E. coli.

[9] = system: E. coli BW25113 ΔtolC cipR isolate GyrA Asp87Gly; assay: MIC against ciprofloxacin-resistant mutant; details: Escherichia coli, BW25113
Protocol: as §2

E. coli DNA gyrase = E. coli DNA gyrase (Escherichia coli, UniProt P0AES4+P0AES6); assay: DNA gyrase gel shift assay; details: IC50 against E. coli DNA gyrase, WT Gyrase
Sequence of E. coli DNA gyrase (P0AES4 whole entry, one chain of several): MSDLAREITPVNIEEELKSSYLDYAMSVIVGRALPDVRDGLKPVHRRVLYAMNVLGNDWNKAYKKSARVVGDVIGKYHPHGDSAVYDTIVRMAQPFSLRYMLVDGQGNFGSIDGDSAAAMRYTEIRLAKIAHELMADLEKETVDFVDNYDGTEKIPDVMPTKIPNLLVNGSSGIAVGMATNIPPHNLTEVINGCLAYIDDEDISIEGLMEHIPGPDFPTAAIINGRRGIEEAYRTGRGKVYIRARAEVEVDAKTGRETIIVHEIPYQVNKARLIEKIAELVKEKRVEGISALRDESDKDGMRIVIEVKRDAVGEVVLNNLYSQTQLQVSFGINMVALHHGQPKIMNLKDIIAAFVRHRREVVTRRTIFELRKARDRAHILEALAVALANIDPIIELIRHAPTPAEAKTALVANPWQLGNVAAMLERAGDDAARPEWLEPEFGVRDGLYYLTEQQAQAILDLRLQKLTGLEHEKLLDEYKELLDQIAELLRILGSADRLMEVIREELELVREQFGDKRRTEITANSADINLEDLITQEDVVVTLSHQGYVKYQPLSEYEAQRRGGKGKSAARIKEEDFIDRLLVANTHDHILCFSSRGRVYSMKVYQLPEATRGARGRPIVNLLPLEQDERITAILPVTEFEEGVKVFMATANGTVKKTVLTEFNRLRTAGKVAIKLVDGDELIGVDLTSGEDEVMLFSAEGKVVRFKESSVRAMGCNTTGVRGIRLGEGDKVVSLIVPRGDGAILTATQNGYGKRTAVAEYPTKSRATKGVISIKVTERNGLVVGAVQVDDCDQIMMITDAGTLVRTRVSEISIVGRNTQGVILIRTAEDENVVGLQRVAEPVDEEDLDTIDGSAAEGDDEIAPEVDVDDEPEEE

Bacillus cereus = assay: MIC, 20-strain panel; type: cell-based; details: Table 7, separate set of experiments, read-out: MIC
How it was run: as §1

[10] = system: Staphylococcus aureus subsp. aureus; assay: MIC, 20-strain panel; type: cell-based; details: Staphylococcus aureus subsp. aureus, Table 7, separate set of experiments, read-out: MIC
How it was run: as §1

[11] = system: Morganella morganii subsp. morganii; assay: MIC, 20-strain panel; type: cell-based; details: Morganella morganii subsp. morganii; Table 7, separate set of experiments; read-out: MIC
How it was run: as §1

[12] = system: Staphylococcus saprophyticus subsp. saprophyticus; assay: MIC, 20-strain panel; type: cell-based; details: Staphylococcus saprophyticus subsp. saprophyticus, Table 7, separate set of experiments, read-out: MIC
How it was run: as §1

[13] = system: Klebsiella pneumoniae subsp. pneumoniae; assay: MIC, 20-strain panel; type: cell-based; details: Klebsiella pneumoniae subsp. pneumoniae, Table 7, separate set of experiments, read-out: MIC
How it was run: as §1

Bacillus subtilis 168 = assay: MIC, 20-strain panel; type: cell-based; details: Table 7, separate set of experiments, read-out: MIC
How it was run: as §1

[14] = system: Salmonella enterica subsp. enterica typhimurium; assay: MIC, 20-strain panel; type: cell-based; details: Salmonella enterica subsp. enterica typhimurium, Table 7, separate set of experiments
How it was run: as §1

[15] = system: E. coli BW25113 ΔtolC cipR isolate GyrA Asp87Tyr; assay: MIC against ciprofloxacin-resistant mutant; details: Escherichia coli, BW25113
Protocol: as §2

[16] = Table 7, separate set of experiments

## N#Cc1cccc(S(=O)(=O)N[C@@H]2CCN(Cc3ccc(-c4ccccc4)cc3)C2)c1 [Gyramide C2, gyramide C2]
[1]
  Kd for the association: < 50000 nM
[2]
  MIC: 0.4 µM (≈ 0.167 µg/mL)
[3]
  MIC: 0.4 µM (≈ 0.167 µg/mL)
[4]
  MIC against ciprofloxacin resistant strains compared to the parent strain: 4-8 times
Klebsiella pneumonia; with PAβN (60 μM)
  MIC: 20 µM (≈ 8.35 µg/mL)
Klebsiella pneumonia; without PAβN
  MIC: > 640 µM
Morganella morganii
  MIC: > 640 µM
Morganella morganii; without PAβN
  MIC: >640 µM
[5]
  MIC: > 25.6 µM
Shigella boydii; with PAβN (60 μM)
  MIC: 1.25 µM (≈ 0.522 µg/mL)
Shigella boydii; without PAβN
  MIC: 80 µM (≈ 33.4 µg/mL)
[6]
  MIC: 25.6 µM (≈ 10.7 µg/mL)
Vibrio cholera; with PAβN (60 μM)
  MIC: 40 µM (≈ 16.7 µg/mL)
Vibrio cholera; without PAβN
  MIC: 160 µM (≈ 66.8 µg/mL)
[7]
  MIC: 25.6 µM (≈ 10.7 µg/mL)
[8]
  MIC against gyramide A resistant mutants compared to the parent strain: > 200 times
E. coli BW25113; [16]
  MIC: 16 µg/mL
E. coli BW25113; without PAβN
  MIC: 20 µM
Edwardsiella tarda; [16]
  MIC: 16 µg/mL
Edwardsiella tarda; with PAβN (60 μM)
  MIC: 20 µM
Edwardsiella tarda; without PAβN
  MIC: > 640 µM
Pseudomonas aeruginosa; [16]
  MIC: > 16 µg/mL
Pseudomonas aeruginosa; with PAβN (60 μM)
  MIC: 20 µM
Pseudomonas aeruginosa; without PAβN
  MIC: > 640 µM
Enterobacter aerogenes; [16]
  MIC: > 16 µg/mL
Enterobacter aerogenes; with PAβN (60 μM)
  MIC: 10 µM
Enterobacter aerogenes; without PAβN
  MIC: > 640 µM
Acinetobacter baumannii; [16]
  MIC: > 16 µg/mL
Acinetobacter baumannii; with PAβN (60 μM)
  MIC: 40 µM
Acinetobacter baumannii; without PAβN
  MIC: > 640 µM
wild-type E. coli
  concentration observed to kill wild-type E. coli: 20 µM
[9]
  MIC: 0.8 µM (≈ 0.334 µg/mL)
E. coli DNA gyrase; Average of 3 trials
  IC50: 122 ± 39.2 nM
E. coli DNA gyrase; Trial 1
  IC50: 84.5 nM
E. coli DNA gyrase; Trial 2
  IC50: 119 nM
E. coli DNA gyrase; Trial 3
  IC50: 163 nM
Bacillus cereus
  MIC: > 16 µg/mL
[10]
  MIC: > 16 µg/mL
[11]
  MIC: > 16 µg/mL
[12]
  MIC: > 16 µg/mL
[13]
  MIC: > 16 µg/mL
Bacillus subtilis 168
  MIC: > 16 µg/mL
[14]
  MIC: 2 µg/mL (≈ 4.79 µM)
[15]
  MIC: 0.8 µM (≈ 0.334 µg/mL)
